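Where inhibition never reached the appropriate level, the endpoint shown equals the highest concentration tested. Otherwise, values were interpolated linearly from a five-concentration, 48-hour dose response in 96-well plates. At the GI50, growth is halved.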 The source made the active and inactive calls. No stated cut-off is given here; in the data, active = GI50 up to about 1.1 µM and inactive = higher.
What was measured:
Assay in all cases: DTP human tumour cell line panel, 48 h
[1] = system: OVCAR-8
[2] = system: ACHN
[3] = system: NCI/ADR-RES
[4] = system: HCT-116
[5] = system: CAKI-1
[6] = system: NCI-H226
[7] = system: SN12C
[8] = system: SF-268
[9] = system: K562
[10] = system: HCT-15
[11] = system: SK-MEL-28
[12] = system: NCI-H522
[13] = system: DU-145
[14] = system: MOLT-4
[15] = system: HT-29
[16] = system: SR
[17] = system: RPMI-8226
[18] = system: TK-10
[19] = system: RXF 393
[20] = system: NCI-H460

Structure (SMILES) | GI50 [1] | GI50 [2] | GI50 [3] | GI50 [4] | GI50 [5] | GI50 [6] | GI50 [7] | GI50 [8] | GI50 [9] | GI50 [10] [µM] | GI50 [11] | GI50 [12] | GI50 [13] | GI50 [14] | GI50 [15] | GI50 [16] | GI50 [17] | GI50 [18] | GI50 [19] | GI50 [20]
COC(=O)[C@@H]1C=C[C@@H](C#N)n2c(=O)n(-c3ccccc3)c(=O)n21 | 23.3 µM (inactive) | 38.5 µM (inactive) | 26.4 µM (inactive) | 24.5 µM (inactive) | 98.9 µM (inactive) | 15.6 µM (inactive) | 26.2 µM (inactive) | 27.9 µM (inactive) | 37.9 µM (inactive) | 30.1 | 17 µM (inactive) | 14.8 µM (inactive) | 25.5 µM (inactive) | 34.7 µM (inactive) | 31.1 µM (inactive) | 20.6 µM (inactive) | 31.8 µM (inactive) | 82.2 µM (inactive) | – | –
O=[N+]([O-])c1ccc(/C=C/c2cc(-c3ccccc3)nc3ccc4ccccc4c23)cc1 | > 100 µM (inactive) | > 100 µM (inactive) | > 100 µM (inactive) | > 100 µM (inactive) | > 100 µM (inactive) | > 100 µM (inactive) | > 100 µM (inactive) | > 100 µM (inactive) | > 100 µM (inactive) | > 100 | > 100 µM (inactive) | – | > 100 µM (inactive) | > 100 µM (inactive) | > 100 µM (inactive) | > 100 µM (inactive) | > 100 µM (inactive) | > 100 µM (inactive) | > 100 µM (inactive) | > 100 µM (inactive)
C#CCn1c(=O)c(C)cn(/C(=C/C(=O)OCC)C(=O)OCC)c1=O | 2.49 µM (inactive) | 1.84 µM (inactive) | 3.91 µM (inactive) | 4.67 µM (inactive) | 1.66 µM (inactive) | 2.19 µM (inactive) | 8.57 µM (inactive) | 12.4 µM (inactive) | 2.84 µM (inactive) | 1.21 | 4.9 µM (inactive) | – | 10.4 µM (inactive) | 3.43 µM (inactive) | 2.23 µM (inactive) | 3.5 µM (inactive) | 3.98 µM (inactive) | 2.01 µM (inactive) | 0.569 µM (active) | 1.95 µM (inactive)
Cn1c(=S)[nH]c(N)c(Cc2ccccc2)c1=O | 93.8 µM (inactive) | > 100 µM (inactive) | 64.4 µM (inactive) | > 100 µM (inactive) | > 100 µM (inactive) | 44.3 µM (inactive) | > 100 µM (inactive) | > 100 µM (inactive) | 78.5 µM (inactive) | 42.9 | > 100 µM (inactive) | – | > 100 µM (inactive) | 41.8 µM (inactive) | 77.8 µM (inactive) | 67.5 µM (inactive) | > 100 µM (inactive) | 81.8 µM (inactive) | > 100 µM (inactive) | > 100 µM (inactive)
Cc1sc2nc3n(sc4nc5sc(C)c(C)c5c(=O)n43)c(=O)c2c1C | > 100 µM (inactive) | – | > 100 µM (inactive) | > 100 µM (inactive) | 66.1 µM (inactive) | > 100 µM (inactive) | > 100 µM (inactive) | > 100 µM (inactive) | 93.8 µM (inactive) | > 100 | > 100 µM (inactive) | 16.4 µM (inactive) | > 100 µM (inactive) | 23 µM (inactive) | > 100 µM (inactive) | 75.5 µM (inactive) | > 100 µM (inactive) | > 100 µM (inactive) | – | > 100 µM (inactive)
COc1ccc(N2C(=O)CC(c3c[nH]c4ccccc34)C2=O)cc1 (configuration not stated) | > 100 µM (inactive) | > 100 µM (inactive) | 97.3 µM (inactive) | > 100 µM (inactive) | > 100 µM (inactive) | > 100 µM (inactive) | > 100 µM (inactive) | > 100 µM (inactive) | > 100 µM (inactive) | > 100 | > 100 µM (inactive) | – | > 100 µM (inactive) | > 100 µM (inactive) | > 100 µM (inactive) | > 100 µM (inactive) | > 100 µM (inactive) | > 100 µM (inactive) | > 100 µM (inactive) | > 100 µM (inactive)

Reference: ChEMBL document CHEMBL1201862, “PubChem BioAssay data set” (2004)
